The target in assay [1] is T1, hCB1R (Homo sapiens, UniProt P21554). The assay is described as follows: cell-based. It counts as cell-based.
Assay [2] concerns the target T1, hCB1R. The assay is described as follows: cell-based. The format is cell-based. This is another data set of the same source.
Assay [3] concerns the target T1, hCB1R. The experiment in a line: biochemical. It counts as binding.
Assay [4] deals with male C57BL/6 mice. The assay is described as follows: Catalepsy, bar holding assay. It counts as in vivo, mouse. To be noted: 5 min post-injection; for effect on ∆9-THC-dependent catalepsy: 10 mg/kg phytomolecule + 10 mg/kg ∆9-THC i.p.; for catalepsy: 10 mg/kg i.p., male mice. The procedure:
(§1) Male C57BL/6 mice between 8 and 12 weeks of age were used for these studies. Animals were group housed at the Laboratory Animal Services Unit (LASU) at the University of Saskatchewan (3 animals/cage) with a standard 12:12 light-dark cycle, ad libitum access to food and water, and environmental enrichment. Compounds were prepared in the vehicle [ethanol and cremophor in saline (1:1:8)] and administered intraperitoneally (i.p.). Catalepsy was assessed in the bar holding assay 5 min after compound administration with animals placed so that their forepaws clasped a 0.7-cm ring clamp 4.5 cm above the surface of the testing space ([Garai et al., 2020]). The length of time the ring was held was recorded up to 60 s (i.e., percent maximum possible effect [MPE] 60 s) with the trial ending if the mouse turned its head or body or made three consecutive escape attempts. Body temperature was measured 15 min after compound administration by using a rectal thermometer. Anti-nociceptive effects were measured in warm water (52 ± 2°C) using the tail-flick test 20 min after compound administration to a maximum of 20 s (i.e., percent maximum possible effect [MPE] 20 s). Compounds were administered at the doses indicated. Experimenters were blinded to treatment for all behavioral assessments and analyses. Animals were purchased, rather than bred, to reduce animal numbers. In all cases, experiments were performed with the approval of the University Animal Care Committee (UACC) at the University of Saskatchewan and in keeping with the guidelines of the Canadian Council on Animal Care (CCAC).

In assay [5] the test system is male C57BL/6 mice. The experiment in a line: Anti-nociception, warm water tail-flick test. The format is in vivo, mouse. As to conditions: 20 min post-injection; for effect on ∆9-THC-dependent anti-nociception, tail-flick: 10 mg/kg phytomolecule + 10 mg/kg ∆9-THC i.p.; for anti-nociceptive effect, tail-flick: 10 mg/kg i.p., male mice. The protocol: as §1
In general terms: Hot-plate and tail-flick tests time the reaction to a heat stimulus.

Assay [6] concerns male C57BL/6 mice. The assay is described as follows: Body temperature, rectal thermometer. It counts as in vivo, mouse. To be noted: 15 min post-injection; for effect on ∆9-THC-dependent change of body temperature: 10 mg/kg phytomolecule + 10 mg/kg ∆9-THC i.p.; for body temperature: 10 mg/kg i.p., male mice. The protocol:
as §1

Setting [7] is: CHO-K1; read-out: cAMP inhibition Emax.
Where [8] appears, read: co-treatment with 100 nM ∆9-THC.
The mark [9] stands for this setting: compound alone; 10 µM forskolin, 90 min; value with 95% CI; read-out: cAMP inhibition EC50.
[10] abbreviates: CHO-K1; read-out: βarrestin2 recruitment Emax.
[11] abbreviates: compound alone; 90 min; value with 95% CI; read-out: βarrestin2 recruitment EC50.
[12] abbreviates: CHO-K1, read-out: cAMP inhibition Emax.
The mark [13] stands for this setting: CHO-K1, read-out: βarrestin2 recruitment Emax.

Read-outs that look alike come from different tables or passages of the source. A value given as a limit tells only on which side of the number the result lay.

T1 sequence (P21554 whole entry): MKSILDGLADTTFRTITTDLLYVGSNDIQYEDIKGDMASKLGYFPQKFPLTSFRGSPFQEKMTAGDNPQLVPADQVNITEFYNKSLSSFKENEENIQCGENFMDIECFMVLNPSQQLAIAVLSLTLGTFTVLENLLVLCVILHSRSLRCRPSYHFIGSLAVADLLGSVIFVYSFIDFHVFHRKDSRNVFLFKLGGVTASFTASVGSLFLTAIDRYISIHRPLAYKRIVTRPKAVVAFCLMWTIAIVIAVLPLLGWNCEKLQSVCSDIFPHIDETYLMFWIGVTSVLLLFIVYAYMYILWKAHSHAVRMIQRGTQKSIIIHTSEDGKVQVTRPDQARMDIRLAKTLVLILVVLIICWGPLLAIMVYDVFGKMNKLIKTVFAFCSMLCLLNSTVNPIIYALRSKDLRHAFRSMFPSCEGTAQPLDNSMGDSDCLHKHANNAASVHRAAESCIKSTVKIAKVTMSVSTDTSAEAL

Consider `CCCCCc1cc(O)cc(O)c1` [Olivetol, olivetol], for which, in assay [1] (setting [7]), the Emax was 5.6 ± 1.6%. Moreover, in assay [1] (setting [8]), the “effect on cAMP inhibition by 100 nM ∆9-THC” value (shortened to “effect on cAMP inhibition”) is “did not change the cAMP inhibitory effects of 100 nM ∆^9-THC”. The EC50 in assay [1] (setting [9]) was above 10 µM. Also, the Emax in assay [2] (setting [10]) was found to be 8.3 ± 2.1%. The EC50 in assay [2] (setting [11]) is above 10 µM. Further, in assay [3], the Ki came to 0.017 µM, the “[3H]CP55,940 Emin” value worked out at 57 ± 5.5 % and the “effect on [3H]CP55,940 displacement by 100 nM ∆9-THC” value (shortened to “effect on [3H]CP55,940 displacement”) is “did not significantly alter [^3H]CP55,940 displacement”.

Take `CCCCCCC(C)(C)c1ccc(C2CC(O)CCC2CCCO)c(O)c1` (centres unmarked) [CP55,940, reference compound]: the maximal effect (Emax) in assay [1] (setting [12]) was 100 ± 6.2%; in assay [2] (setting [13]), 100 ± 3.3%. Besides, the “[3H]CP55,940 Emin” value in assay [3] is reported as 1.0 ± 4.7%.

Consider `CCCCCCCCCCCCCCCC(=O)NCCO` [PEA, palmitoylethanolamide], for which, in assay [1], the “concentration at which CB1R- and ∆9-THC-dependent inhibition of cAMP was augmented” value is reported as “approximately 1 μM”; the “effect on cAMP inhibition” value is given as “augmented the activity of 100 nM ∆^9-THC in a concentration-dependent manner”; the “type of agonism in cAMP inhibition” value is listed as “weak partial agonist inhibition of cAMP accumulation”. Further, in assay [1] (setting [12]), the Emax was determined as 26 ± 1.8%. In addition, the “effect on ∆9-THC-dependent catalepsy” value in assay [4] is given as “capable of blocking ∆^9-THC’s effects on catalepsy”. The “effect on ∆9-THC-dependent anti-nociception, tail-flick” value in assay [5] was “did not block the effect”. Also, in assay [2], the “concentration at which CB1R- and ∆9-THC-dependent βarrestin2 recruitment was augmented” value is recorded as “approximately 1 μM”; the “effect on βarrestin2 recruitment by 100 nM ∆9-THC” value is “slightly increased βarrestin2 recruitment”. Moreover, the maximal response (Emax) in assay [2] (setting [13]) was 5.6 ± 3.3%. In addition, in assay [3], the Ki was above 10 µM, the “[3H]CP55,940 Emin” value came to 46 ± 5.3 %, the “concentration at which [3H]CP55,940 binding was reduced” value is “exceeding 1 μM” and the “effect on [3H]CP55,940 displacement” value is “did not significantly alter [^3H]CP55,940 displacement”. The “effect on ∆9-THC-dependent change of body temperature” value (shortened to “effect on ∆9-THC-dependent change”) in assay [6] is “capable of blocking ∆^9-THC’s effects on catalepsy and body temperature”.

Compound `O=C(/C=C/C=C/c1ccc2c(c1)OCO2)N1CCCCC1` [Piperine, piperine] returned a concentration giving a half-maximal response (EC50) in assay [1] above 10 µM. The Emax in assay [1] (setting [7]) stood at 5.5 ± 0.63%. In addition, the “effect on cAMP inhibition” value in assay [1] (setting [8]) was “did not change the cAMP inhibitory effects of 100 nM ∆^9-THC”. In assay [2], this compound came in with an EC50 above 10 µM. In assay [2] (setting [10]), the Emax is 7.9 ± 0.97%. For the same compound, in assay [3], the Ki is above 10 µM, the “[3H]CP55,940 Emin” value was found to be 37 ± 2.8 % and the “effect on [3H]CP55,940 displacement” value is “did not significantly alter [^3H]CP55,940 displacement”.

On to `O=C(O[C@@H]1Cc2c(O)cc(O)cc2O[C@@H]1c1cc(O)c(O)c(O)c1)c1cc(O)c(O)c(O)c1` [Egc G, epigallocatechin gallate], for which the results for the Emax in assay [1] (setting [7]) and in assay [2] (setting [10]) were 5.6 ± 0.52% and 7.2 ± 0.85%, respectively. In addition, in assay [1] (setting [8]), the “effect on cAMP inhibition” value is “inhibited the activity of 100 nM ∆^9-THC in a concentration-dependent manner”. The EC50 in assay [1] (setting [9]) and in assay [2] (setting [11]) was above 10 µM each time. Further, the Ki in assay [3] was above 10 µM. The “[3H]CP55,940 Emin” value in assay [3] is 95 ± 3.4 %. Moreover, in assay [3], the “effect on [3H]CP55,940 displacement” value was “augmented the displacement of [^3H]CP55,940 from hCB1R by ∆^9-THC”.

Consider `COc1cc(/C=C/C(=O)CC(=O)/C=C/c2ccc(O)c(OC)c2)ccc1O` [Curcumin, curcumin], for which the Emax in assay [1] (setting [7]) was determined as 6.2 ± 0.76%. For the same compound, in assay [1] (setting [8]), the “effect on cAMP inhibition” value is listed as “inhibited the activity of 100 nM ∆^9-THC in a concentration-dependent manner”. Besides, in assay [1] (setting [9]), the concentration giving a half-maximal response (EC50) is above 10 µM. The “effect on ∆9-THC-dependent catalepsy” value in assay [4] was “capable of blocking ∆^9-THC’s effects on catalepsy”. The “effect on ∆9-THC-dependent anti-nociception, tail-flick” value in assay [5] was “blocked ∆^9-THC’s effect in the nociception test”. Besides, the Emax in assay [2] (setting [10]) was determined as 8.9 ± 2.2%. Further, the EC50 in assay [2] (setting [11]) is above 10 µM. Also, in assay [3], the Ki is above 10 µM, the “[3H]CP55,940 Emin” value came to 100 ± 2.0 % and the “effect on [3H]CP55,940 displacement” value was “did not significantly alter [^3H]CP55,940 displacement”. Besides, the “effect on ∆9-THC-dependent change” value in assay [6] was “capable of blocking ∆^9-THC’s effects on catalepsy and body temperature”.

`O=c1c(O)c(-c2ccc(O)c(O)c2)oc2cc(O)cc(O)c12` [Quercetin, quercetin]: in assay [4], the “effect on ∆9-THC-dependent catalepsy” value is given as “capable of blocking ∆^9-THC’s effects on catalepsy”. Besides, the “effect on ∆9-THC-dependent anti-nociception, tail-flick” value in assay [5] is on record as “blocked ∆^9-THC’s effect in the nociception test”. In addition, the “effect on ∆9-THC-dependent change” value in assay [6] was “capable of blocking ∆^9-THC’s effects on catalepsy and body temperature”.

In the case of `CCCCCc1cc(O)c2c(c1)OC(C)(C)c1ccc(C)cc1-2` [CBN, cannabinol], in assay [1], the EC50 came out at 0.049 µM, the “effect on cAMP inhibition” value is on record as “neither ∆^8-THC nor CBN produced a significant change in cAMP inhibition” and the “fold less potent than CP55,940 in cAMP inhibition” value was around 49 x. The Emax in assay [1] (setting [12]) was found to be 64 ± 4.6%. In addition, in assay [4], the catalepsy entry is given as “did not produce catalepsy”. Also, the “anti-nociceptive effect, tail-flick” value in assay [5] is given as “did not produce such effect”. The EC50 in assay [2] is above 10 µM. Moreover, in assay [2] (setting [13]), the Emax worked out at 6.9 ± 0.96%. Besides, in assay [3], the Ki is 0.14 µM and the “[3H]CP55,940 Emin” value is listed as 71 ± 3.1 %. In addition, the body temperature result in assay [6] is given as “did not produce catalepsy or reduce body temperature”.

On to `CCCCCc1cc(O)c2c(c1)OC(C)(C)[C@@H]1CCC(CO)=C[C@@H]21` [11-OH-∆^9-THC], for which the results for the EC50 in assay [1] and in assay [2] were 0.011 µM and above 10 µM, respectively. Also, the “effect on cAMP inhibition” value in assay [1] was “inhibited the activity of 100 nM ∆^9-THC in a concentration-dependent manner”. The figures for the Emax in assay [1] (setting [12]) and in assay [2] (setting [13]) were 28 ± 3.9% and 47 ± 9.4%, respectively. The catalepsy entry in assay [4] is listed as “equal catalepsy”. For the same compound, the “anti-nociceptive effect, tail-flick” value in assay [5] is “greater hypothermia and anti-nociceptive responses relative to ∆^9-THC”. In addition, the “effect on βarrestin2 recruitment by 100 nM ∆9-THC” value in assay [2] is listed as “elevated βarrestin2 recruitment above the activity of 100 nM ∆^9-THC”. Further, the “[3H]CP55,940 Emin” value in assay [3] is given as 70 ± 1.7 %. For the same compound, in assay [6], the body temperature entry is on record as “greater hypothermia”.

With `CCCCCc1cc(O)c2c(c1)OC(C)(C)C1=C2CC(C)CC1` (centres unmarked) [∆^6a,10a-THC], the catalepsy result in assay [4] is given as “did not produce catalepsy”. Besides, in assay [5], the “anti-nociceptive effect, tail-flick” value was “did not produce such effect”. Moreover, in assay [6], the body temperature result was “did not produce catalepsy or reduce body temperature”.

In the case of `CCCCCc1cc(O)c2c(c1)OC(C)(C)[C@@H]1CC=C(C)C[C@@H]21` [∆^8-THC], in assay [1], the “effect on cAMP inhibition” value was “neither ∆^8-THC nor CBN produced a significant change in cAMP inhibition”. Also, the results for the Emax in assay [1] (setting [12]) and in assay [2] (setting [13]) were 56 ± 9.6% and 21 ± 1.8%, respectively. Besides, the catalepsy entry in assay [4] is “did not produce catalepsy”. In addition, in assay [5], the “anti-nociceptive effect, tail-flick” value is recorded as “produced an anti-nociceptive effect that was not different from ∆^9-THC”. Also, in assay [3], the “[3H]CP55,940 Emin” value is listed as 30 ± 5.0 %. The body temperature entry in assay [6] is on record as “did not produce catalepsy or reduce body temperature”.

What is called Emax is the greatest response seen or fitted, relative to the assay's reference. As usually defined, the EC50 is the concentration that produces a half-maximal response. What is called Ki is a measure of affinity in units of concentration, obtained from inhibition or displacement.

These data come from publication PMC9458935, “Modulation of type 1 cannabinoid receptor activity by cannabinoid by-products from Cannabis sativa and non-cannabis phytomolecules” (Frontiers in Pharmacology, 2022).
